Results: patent US10111427B2, “Formulation for improving the yield and quality of fiber in cotton plants” (Council of Scientific & Industrial Research, priority 2015, dated 2018)

Experiments:
cultured cotton ovules [1] = assay: In-vitro cotton ovule culture assay, phenotypic observation of fiber growth; assay type: cell-based; details: tested 1-NAA 1, 5, 10, 20 μM; GA3 0.1, 0.5, 1, 5 μM; Anacardic acid 2, 4, 8, 10 μM; 32° C.
Excerpt: In the present invention, Anacardic acid may be dissolved in solvents selected from Dimethyl Sulfoxide (DMSO), Dimethyl formamide (DMFO), ethanol methanol, dichloromethane, ether, petroleum ether and ethyl acetate in a suitable concentration and mixed with 1Naphthaleneacetic Acid (1-NAA) and Gibberellic acid (GA3). For standardization of appropriate concentrations of phytohormones and Anacardic acid for better yield and quality of fiber, the formulation and its components were first tested on cultured ovules. Different concentrations of 1-NAA (1, 5, 10 and 20 μM) and GA3 (0.1, 0.5, 1 and 5 μM) were tested in ovule culture media and established that fiber growth was better at 5 μM 1-NAA and 0.5 μM GA3. Similarly, different concentrations of Anacardic acid (2, 4, 8 and 10 μM) were also used and established that fiber growth was better at 8 μM Anacardic acid in media in comparison to other concentrations.
Formulation was diluted with modified ½ MSL (Murasighe Skoog Liquid) media having 2% sucrose for a final concentration of Anacardic acid to 8 μM, 1-NAA to 5 μM and GA3 to 0.5 μM. This formulation was then used to culture cotton, ovules excised at −3 DPA (Day Post Anthesis) to study its effect on fiber initiation and at 0 DPA for fiber elongation. Ovules were examined (at 3 DPA for initiation and at 12 DPA for elongation stage) and photographed (Example 1). […] Cotton ovules cultured with the formulation (1-NAA+GA3+ Anacardic acid) in culture media show higher number of initiating fibers and better growth in comparison to control ovules (only phytohormones treated).
For standardization of appropriate concentrations of phytohormones and Anacardic acid for better yield and quality of fiber, the formulation and its components were first tested on cultured ovules. […]
Finally, in-vitro ovule culture experiment was performed with 8 μM Anacardic acid, 5 μM 1-NAA and 0.5 μM GA3 in media along with control sample having only 5 μM 1-NAA and 0.5 μM GA3. The phenotypic observations were recorded at 3 DPA for initiation stage and at 12 DPA for elongation stage (FIG. 1).

cultured cotton ovules [2] = assay: Ovule culture with different phytohormones with and without Anacardic acid; assay type: cell-based; details: 12 DPA; for growth in cultures having Anacardic acid with phytohormone: Anacardic acid added at 3 DPA, in comparison to control where only phytohormones were used; for Lignin content of ovules cultured with Anacardic acid and phytohormone: toluidine blue, in comparison to control wherein only phytohormones are used
Experimental: To check the effect of the phytohormones on fiber development for better yield and quality of fibers, different phytohormones and their combinations were tested first tested on cultured ovules. Cotton buds and flowers at 1 DPA stage were plucked from the plants for the ovule culture. Ovaries were surface sterilized using 1% Mercuric chloride solution and washed three times with MQ water. Ovules were excised using sterilized fine forceps and brushes. Isolted ovules (3-5) were transferred to culture media with different 5 μM of 1-Naphthaleneacetic acid (1NAA), Indole-3-acetic acid (IAA), 2,4-Dichlorophenoxyacetic acid (2,4-D), Kinetin, Zeatin and 0.5 μM Gibberellic acid (GA3)along with untreated ovules (having no phytohormones) placed in 35mm tissue culture dishes in two sets. All the dishes were further places in incubators set at 32° C. In one set of dishes, Anacardic acid was added to 3 DPA stage, while the other set was used to control. It has been observed that at 12 DPA stage growth in cultures having Anacardic acid with phytohormones like 1-NAA, IAA, 2,4-D and GA3 at […] was better in comparison to the control conditions, where only phytohormones were used (FIG. 8). […] For the lignin qualification, ovules were boiled in distilled water with a drop of concentrated HCl to dissolve waxes and leave the fibers hydrophilic. After rinsing in distilled water, three ovules per sample were places in a 50 ml falcon tube and stained with 30 ml. of toluidine blue solution (0.018% toluidine blue, 0.016 M Na2HPO4, 0.01 M citric acid, pH 4.5) for 30 s. After staining, the ovules were rinsed thoroughly with distilled water and briefly laid on absorbent paper to remove excess water. Ovules were then returned to 50 ml falcon tubes and 50 ml of destaining solution comprising glacial acetic acid, ethanol and water (10:95:5) added. After vigorous shaking and destaining for at least 1 h, 200μl of the solution was pipetted in triplicate into 96-well flat bottom microtiter plates for measurement of absorbance at 624 nm in a plate reader.

Row | Structure (SMILES) | concentration at which fiber growth in ovule culture was better (cultured cotton ovules [1]) [µM] | growth in cultures having Anacardic acid with phytohormone (cultured cotton ovules [2]) | Lignin content of ovules cultured with Anacardic acid and phytohormone (cultured cotton ovules [2])
1 | O=C(O)Cc1cccc2ccccc12 [1-NAA, 1-Naphthaleneacetic acid] | 5 | better | higher
2 | O=C(O)COc1ccc(Cl)cc1Cl [2,4-D, 2,4-Dichlorophenoxyacetic acid] | – | better | higher
3 | CCCCCCCCCCCCCCCc1cccc(O)c1C(=O)O [Anacardic acid] | 8 | – | –
4 | C=C1C[C@]23C[C@@]1(O)CC[C@H]2[C@@]12C=C[C@H](O)[C@@](C)(C(=O)O1)[C@H]2[C@@H]3C(=O)O [GA3, Gibberellic acid] | 0.5 | better | higher
5 | O=C(O)Cc1c[nH]c2ccccc12 [IAA, Indole-3-acetic acid] | – | better | higher
